In brackets after ≈: the same amount, converted by molar mass. Activity calls are given as the source filed them. No cut-off for these calls is given here.
Legend:
Candida albicans [1] = experiment: Antifungal activity against fluconazole/ITC-resistant Candida albicans ATCC MYA-1003 measured after 48 hrs by CLSI M27-A3 protocol based method; type: functional; conditions: Candida albicans, ATCC MYA-1003, 48 h; read-out: MIC
Cryptococcus neoformans [2] = experiment: Antifungal activity against Cryptococcus neoformans isolate CN3 measured after 48 hrs by CLSI M27-A3 protocol based method; type: functional; conditions: Cryptococcus neoformans, isolate CN3, 48 h; read-out: MIC
[3] = Hemolytic activity in mouse RBC at 62.5 ug/ml after 1 hr relative to control; type: ADME, cell-based, Erythrocyte; conditions: mouse red blood cells (erythrocytes), read-out: Activity
Candida parapsilosis [4] = experiment: Antifungal activity against Candida parapsilosis isolate CP3 measured after 48 hrs by CLSI M27-A3 protocol based method; type: functional; conditions: Lodderomyces parapsilosis, isolate CP3, 48 h
Nakaseomyces glabratus [5] = experiment: Antifungal activity against Candida glabrata isolate CG1 measured after 48 hrs by CLSI M27-A3 protocol based method; type: functional; conditions: Nakaseomyces glabratus, 48 h; read-out: MIC
Candida albicans [6] = experiment: Antifungal activity against fluconazole/ITC-resistant Candida albicans ATCC 90819 measured after 48 hrs by CLSI M27-A3 protocol based method; type: functional; conditions: Candida albicans, ATCC 90819, 48 h; read-out: MIC
Candida albicans [7] = experiment: Antifungal activity against fluconazole/ITC-resistant Candida albicans ATCC MYA-1237 measured after 48 hrs by CLSI M27-A3 protocol based method; type: functional; conditions: Candida albicans, ATCC MYA-1237, 48 h; read-out: MIC
Cryptococcus neoformans [8] = experiment: Antifungal activity against Cryptococcus neoformans isolate CN1 measured after 48 hrs by CLSI M27-A3 protocol based method; type: functional; conditions: isolate CN1, 48 h
Candida albicans [9] = experiment: Antifungal activity against Candida albicans ATCC 10231 measured after 48 hrs by CLSI M27-A3 protocol based method; type: functional; conditions: ATCC 10231, 48 h
Cryptococcus neoformans [10] = experiment: Antifungal activity against Cryptococcus neoformans isolate CN2 measured after 48 hrs by CLSI M27-A3 protocol based method; type: functional; conditions: Cryptococcus neoformans, isolate CN2, 48 h; read-out: MIC
[11] = Hemolytic activity in mouse RBC at 3.9 ug/ml after 1 hr relative to control; type: ADME, cell-based, Erythrocyte; conditions: mouse red blood cells (erythrocytes), read-out: Activity
Aspergillus flavus = experiment: Antifungal activity against Aspergillus flavus ATCC MYA-3631 measured after 48 hrs by CLSI M38-A2 protocol based method; type: functional; conditions: ATCC MYA-3631, 48 h
Candida albicans [12] = experiment: Antifungal activity against fluconazole/ITC-susceptible Candida albicans ATCC MYA-2310 measured after 48 hrs by CLSI M27-A3 protocol based method; type: functional; conditions: Candida albicans, ATCC MYA-2310, 48 h; read-out: MIC
[13] = Hemolytic activity in mouse RBC at 7.8 ug/ml after 1 hr relative to control; type: ADME, cell-based, Erythrocyte; conditions: mouse red blood cells (erythrocytes), read-out: Activity
Candida albicans [14] = experiment: Antifungal activity against fluconazole/ITC-susceptible Candida albicans ATCC MYA-2876 measured after 48 hrs by CLSI M27-A3 protocol based method; type: functional; conditions: Candida albicans, ATCC MYA-2876, 48 h
Candida albicans [15] = experiment: Fungistatic activity against Candida albicans ATCC 10231 at 4 times MIC incubated for 24 hrs by time kill assay; type: functional, organism-based
Candida parapsilosis [16] = experiment: Fungistatic activity against Candida parapsilosis ATCC 22019 up to 4 times MIC incubated for 24 hrs by time kill assay; type: functional, organism-based
Pichia kudriavzevii = experiment: Antifungal activity against Candida krusei ATCC 6258 measured after 48 hrs by CLSI M27-A3 protocol based method; type: functional; conditions: Pichia kudriavzevii, ATCC 6258, 48 h
Candida albicans [17] = experiment: Antifungal activity against Candida albicans ATCC 64124 measured after 48 hrs by CLSI M27-A3 protocol based method; type: functional; conditions: Candida albicans, ATCC 64124, 48 h; read-out: MIC
[18] = Hemolytic activity in mouse RBC at […] ug/ml after 1 hr relative to control; type: ADME, cell-based, Erythrocyte; conditions: mouse red blood cells (erythrocytes), read-out: Activity
Nakaseomyces glabratus [19] = experiment: Antifungal activity against Candida glabrata ATCC 2001 measured after 48 hrs by CLSI M27-A3 protocol based method; type: functional, CBS 138; conditions: Nakaseomyces glabratus, CBS 138, 48 h; read-out: MIC
Candida albicans [20] = experiment: Antifungal activity against Candida albicans ATCC 10231 measured after 48 hrs in presence of 10% FBS by CLSI M27-A3 protocol based method; type: functional; conditions: Candida albicans, ATCC 10231, 48 h
HEK293 = experiment: Cytotoxicity against HEK293 cells at 7.8 ug/ml after 24 hrs by resazurin based assay; type: cell-based; conditions: human, hek293, 24 h
[21] = Hemolytic activity in mouse RBC at 1.95 ug/ml after 1 hr relative to control; type: ADME, cell-based, Erythrocyte; conditions: mouse red blood cells (erythrocytes), at 1.95 µg/mL, read-out: Activity
Aspergillus terreus = experiment: Antifungal activity against Aspergillus terreus ATCC MYA-3633 measured after 48 hrs by CLSI M38-A2 protocol based method; type: functional; conditions: ATCC MYA-3633, 48 h
[22] = Hemolytic activity in mouse RBC at 31.3 ug/ml after 1 hr relative to control; type: ADME, cell-based, Erythrocyte; conditions: mouse red blood cells (erythrocytes), at 31.3 µg/mL, read-out: Activity
Candida albicans [23] = experiment: Induction of membrane permeabilization in Candida albicans ATCC 10231 assessed as membrane disruption at 4 times MIC after 1 hr by propidium iodide staining based fluorescence microscopy; type: functional, organism-based
Candida parapsilosis [24] = experiment: Antifungal activity against Candida parapsilosis isolate CP2 measured after 48 hrs by CLSI M27-A3 protocol based method; type: functional; conditions: Lodderomyces parapsilosis, isolate CP2, 48 h
Candida parapsilosis [25] = experiment: Antifungal activity against Candida parapsilosis ATCC 22019 measured after 48 hrs in presence of 10% FBS by CLSI M27-A3 protocol based method; type: functional; conditions: Lodderomyces parapsilosis, ATCC 22019, 48 h
Candida parapsilosis [26] = experiment: Antifungal activity against Candida parapsilosis isolate CP1 measured after 48 hrs by CLSI M27-A3 protocol based method; type: functional; conditions: Lodderomyces parapsilosis, isolate CP1, 48 h
Candida parapsilosis [27] = experiment: Antifungal activity against Candida parapsilosis ATCC 22019 measured after 48 hrs by CLSI M27-A3 protocol based method; type: functional; conditions: Lodderomyces parapsilosis, ATCC 22019, 48 h
Nakaseomyces glabratus [28] = experiment: Antifungal activity against Candida glabrata isolate CG3 measured after 48 hrs by CLSI M27-A3 protocol based method; type: functional; conditions: Nakaseomyces glabratus, 48 h; read-out: MIC
Nakaseomyces glabratus [29] = experiment: Antifungal activity against Candida glabrata isolate CG2 measured after 48 hrs by CLSI M27-A3 protocol based method; type: functional; conditions: Nakaseomyces glabratus, isolate CG2, 48 h; read-out: MIC
[30] = Hemolytic activity in mouse RBC at 0.48 ug/ml after 1 hr relative to control; type: ADME, cell-based, Erythrocyte; conditions: mouse red blood cells (erythrocytes), read-out: Activity
Aspergillus nidulans [31] = experiment: Antifungal activity against Aspergillus nidulans ATCC 38163 measured after 48 hrs by CLSI M38-A2 protocol based method; type: functional; conditions: ATCC 38163, 48 h
Aspergillus nidulans [32] = experiment: Antifungal activity against Aspergillus nidulans ATCC 38163 measured after 48 hrs in presence of 10% FBS by CLSI M38-A2 protocol based method; type: functional; conditions: ATCC 38163, 48 h
BEAS-2B = experiment: Cytotoxicity against human BEAS2B cells up to 7.8 ug/ml after 24 hrs by resazurin based assay; type: cell-based
A549 = experiment: Cytotoxicity against human A549 cells up to 7.8 ug/ml after 24 hrs by resazurin based assay; type: cell-based; conditions: a549, 24 h

| SMILES | MIC (Candida albicans [1]) [µM] | MIC (Cryptococcus neoformans [2]) [µM] | hemolysis at 1 h, 62.5 ug/ml [3] [%] | MIC (Candida parapsilosis [4]) [µM] | MIC (Nakaseomyces glabratus [5]) [µM] | MIC (Candida albicans [6]) [µM] | MIC (Candida albicans [7]) [µM] | MIC (Cryptococcus neoformans [8]) [µM] | MIC (Candida albicans [9]) [µM] | MIC (Cryptococcus neoformans [10]) [µM] | hemolysis at 1 h, 3.9 ug/ml [11] [%] | MIC (Aspergillus flavus) [µM] | MIC (Candida albicans [12]) [µM] | hemolysis at 1 h, 7.8 ug/ml [13] [%] | MIC (Candida albicans [14]) [µM] | MIC (Pichia kudriavzevii) [µM] | MIC (Candida albicans [17]) [µM] | hemolysis at 1 h, 0.975 ug/ml [18] [%] | hemolysis at 1 h, 15.6 ug/ml [18] [%] | MIC (Nakaseomyces glabratus [19]) [µM] | also measured |
| --- | --- | --- | --- | --- | --- | --- | --- | --- | --- | --- | --- | --- | --- | --- | --- | --- | --- | --- | --- | --- | --- |
| CCCCCCCCCCNCC(O)(Cn1cncn1)c1ccc(F)cc1F (stereo not given) | 19.8 (≈ 7.81 µg/mL) | 1.2 (≈ 0.473 µg/mL) | 100 | 0.61 (≈ 0.241 µg/mL) | 4.9 (≈ 1.93 µg/mL) | 9.9 (≈ 3.91 µg/mL) | 19.8 (≈ 7.81 µg/mL) | 0.61 (≈ 0.241 µg/mL) | 1.2 (≈ 0.473 µg/mL) | 0.61 (≈ 0.241 µg/mL) | 3 | 19.8 (≈ 7.81 µg/mL) | 19.8 (≈ 7.81 µg/mL) | 8 | 9.9 (≈ 3.91 µg/mL) | 1.2 (≈ 0.473 µg/mL) | 39.5 (≈ 15.6 µg/mL) | 0 | 33 | 1.2 to 2.5 (≈ 0.473 to 0.986 µg/mL) | Activity (Candida albicans [15]): Active; Activity (Candida parapsilosis [16]): Active; MIC (Candida albicans [20]): 0.48 mg/L; Activity (HEK293): Non-Toxic; hemolysis at 1 h, 1.95 ug/ml [21]: 2%; MIC (Aspergillus terreus): 9.9 µM (≈ 3.91 µg/mL); hemolysis at 1 h, 31.3 ug/ml [22]: 92%; Activity (Candida albicans [23]): inactive; MIC (Candida parapsilosis [24]): 0.3 µM (≈ 0.118 µg/mL); MIC (Candida parapsilosis [25]): 0.06 mg/L; MIC (Candida parapsilosis [26]): 0.15 µM (≈ 0.0592 µg/mL); MIC (Candida parapsilosis [27]): 0.08 µM (≈ 0.0316 µg/mL); MIC (Nakaseomyces glabratus [28]): 9.9 µM (≈ 3.91 µg/mL); MIC (Nakaseomyces glabratus [29]): 1.2 µM (≈ 0.473 µg/mL); hemolysis at 1 h, 0.48 ug/ml [30]: 0%; MIC (Aspergillus nidulans [31]): 2.5 µM (≈ 0.986 µg/mL); MIC (Aspergillus nidulans [32]): 1.95 mg/L |
| CCCCCCCCCCCCCCCCNCC(O)(Cn1cncn1)c1ccc(F)cc1F (stereo not given) | > 65.4 | 1 (≈ 0.479 µg/mL) | 8 | 2 (≈ 0.957 µg/mL) | 4.1 (≈ 1.96 µg/mL) | 65.4 (≈ 31.3 µg/mL) | > 65.4 | 1 (≈ 0.479 µg/mL) | > 65.4 | 1 (≈ 0.479 µg/mL) | 3 | > 65.4 | 8.1 to 65.4 (≈ 3.88 to 31.3 µg/mL) | 4 | 65.4 (≈ 31.3 µg/mL) | 8.1 (≈ 3.88 µg/mL) | > 65.4 | 5 | 4 | 2 to 65.4 (≈ 0.957 to 31.3 µg/mL) | Activity (HEK293): Non-Toxic; hemolysis at 1 h, 1.95 ug/ml [21]: 6%; MIC (Aspergillus terreus): > 65.4 µM; hemolysis at 1 h, 31.3 ug/ml [22]: 4%; MIC (Candida parapsilosis [24]): 1 µM (≈ 0.479 µg/mL); MIC (Candida parapsilosis [26]): 2 µM (≈ 0.957 µg/mL); Activity (BEAS-2B): Non-Toxic; MIC (Candida parapsilosis [27]): 1 µM (≈ 0.479 µg/mL); MIC (Nakaseomyces glabratus [28]): 16.3 µM (≈ 7.8 µg/mL); MIC (Nakaseomyces glabratus [29]): 2 µM (≈ 0.957 µg/mL); hemolysis at 1 h, 0.48 ug/ml [30]: 4%; Activity (A549): Non-Toxic; MIC (Aspergillus nidulans [31]): 8.1 µM (≈ 3.88 µg/mL) |

— ChEMBL document CHEMBL4118101 (Bioorg Med Chem, 2018)
